Results: article PMC2199025 (The Journal of Experimental Medicine, 1997)
Ends that are not written are not given here.

What was measured:
H-2K^b = H-2K^b (Mus musculus, UniProt P01901); experiment: Peptide competition cytotoxicity assay; type: cell-based, murine
[1] = target: T1, transporters associated with processing (Mus musculus, UniProt P21958+P36371); experiment: Transporter associated with processing; type: biochemical
T1 sequence (P21958 1-724): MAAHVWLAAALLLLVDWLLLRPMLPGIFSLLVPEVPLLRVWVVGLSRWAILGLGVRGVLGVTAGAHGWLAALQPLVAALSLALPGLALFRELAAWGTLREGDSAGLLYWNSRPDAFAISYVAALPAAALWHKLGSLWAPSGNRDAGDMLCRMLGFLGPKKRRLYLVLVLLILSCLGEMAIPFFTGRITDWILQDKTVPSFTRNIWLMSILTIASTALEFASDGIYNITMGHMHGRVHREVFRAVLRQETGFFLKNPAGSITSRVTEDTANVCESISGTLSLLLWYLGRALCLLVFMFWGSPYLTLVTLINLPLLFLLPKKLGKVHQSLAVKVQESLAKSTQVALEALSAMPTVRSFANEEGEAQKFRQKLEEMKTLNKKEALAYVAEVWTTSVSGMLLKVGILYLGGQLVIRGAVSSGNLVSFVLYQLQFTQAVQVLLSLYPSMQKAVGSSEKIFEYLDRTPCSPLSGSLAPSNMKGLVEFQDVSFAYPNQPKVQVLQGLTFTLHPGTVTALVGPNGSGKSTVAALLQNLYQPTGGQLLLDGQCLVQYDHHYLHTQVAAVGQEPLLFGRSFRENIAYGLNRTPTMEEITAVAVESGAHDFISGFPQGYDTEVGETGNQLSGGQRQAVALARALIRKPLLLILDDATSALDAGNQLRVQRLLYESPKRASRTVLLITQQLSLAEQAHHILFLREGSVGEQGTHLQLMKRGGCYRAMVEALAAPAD
T1 sequence (P36371 1-702): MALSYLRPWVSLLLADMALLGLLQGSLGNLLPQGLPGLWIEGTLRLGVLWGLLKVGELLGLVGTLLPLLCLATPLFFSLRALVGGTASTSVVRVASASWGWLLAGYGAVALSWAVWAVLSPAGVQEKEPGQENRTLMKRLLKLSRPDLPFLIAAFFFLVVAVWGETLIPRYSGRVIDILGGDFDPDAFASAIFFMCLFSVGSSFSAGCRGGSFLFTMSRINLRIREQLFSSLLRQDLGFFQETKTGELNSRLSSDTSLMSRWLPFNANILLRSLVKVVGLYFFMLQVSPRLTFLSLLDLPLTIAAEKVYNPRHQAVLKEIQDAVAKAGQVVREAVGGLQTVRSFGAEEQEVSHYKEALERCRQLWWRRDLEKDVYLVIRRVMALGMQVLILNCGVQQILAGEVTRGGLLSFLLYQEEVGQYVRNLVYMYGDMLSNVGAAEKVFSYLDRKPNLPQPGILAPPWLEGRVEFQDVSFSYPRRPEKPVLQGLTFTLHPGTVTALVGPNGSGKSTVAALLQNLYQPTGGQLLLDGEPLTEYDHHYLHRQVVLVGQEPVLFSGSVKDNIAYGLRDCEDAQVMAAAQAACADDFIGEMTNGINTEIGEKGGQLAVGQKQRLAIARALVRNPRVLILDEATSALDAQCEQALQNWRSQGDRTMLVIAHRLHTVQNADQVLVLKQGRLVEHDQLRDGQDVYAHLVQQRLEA

Sequence	IC50 (H-2K^b) [nM]	IC50 [1] [µM]
AIYKKSQHM	271	4.07
LNKLFCQL	2040	7.16
TTIHYKYM		5.68
TYSPPLNKL	13600	5.81
VMCTYSPPL		2.47
YSPPLNKLF	464	> 92.7
